Experiment [1] addresses T1, Or22a/Orco (Drosophila melanogaster, UniProt P81909).
T1 construct: his-tag; made in house; host or cells: baculovirus-infected Sf9 cells
T1 sequence (P81909 1-397): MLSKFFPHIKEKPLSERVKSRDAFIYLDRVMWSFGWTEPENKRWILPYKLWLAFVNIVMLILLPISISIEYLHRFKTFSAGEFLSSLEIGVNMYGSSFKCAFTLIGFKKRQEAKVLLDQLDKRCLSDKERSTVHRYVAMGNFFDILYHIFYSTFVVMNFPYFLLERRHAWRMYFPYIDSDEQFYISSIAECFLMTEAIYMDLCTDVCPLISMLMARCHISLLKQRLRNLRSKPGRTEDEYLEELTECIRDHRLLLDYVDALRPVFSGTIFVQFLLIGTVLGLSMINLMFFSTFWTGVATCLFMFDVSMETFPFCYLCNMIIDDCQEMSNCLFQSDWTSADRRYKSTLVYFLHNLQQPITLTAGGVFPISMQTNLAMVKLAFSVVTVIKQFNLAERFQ
T1 sequence (Q9VNB5 1-486 partner): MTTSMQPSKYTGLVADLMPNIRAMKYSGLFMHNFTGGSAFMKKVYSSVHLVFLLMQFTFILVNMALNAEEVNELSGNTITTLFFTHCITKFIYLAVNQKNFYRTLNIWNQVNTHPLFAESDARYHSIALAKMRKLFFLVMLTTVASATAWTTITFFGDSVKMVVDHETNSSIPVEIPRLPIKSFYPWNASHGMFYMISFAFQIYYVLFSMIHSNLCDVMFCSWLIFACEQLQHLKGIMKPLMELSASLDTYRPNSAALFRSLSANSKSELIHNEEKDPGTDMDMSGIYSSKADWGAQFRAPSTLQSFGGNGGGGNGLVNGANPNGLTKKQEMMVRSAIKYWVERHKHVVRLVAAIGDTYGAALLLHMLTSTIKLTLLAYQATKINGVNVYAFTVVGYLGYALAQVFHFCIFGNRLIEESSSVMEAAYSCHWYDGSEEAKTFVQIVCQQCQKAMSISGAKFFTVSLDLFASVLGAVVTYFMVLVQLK
Briefly: Droplet interface bilayer ion channel recording, Or22a/Orco. In kind it is biochemical. Conditions: DIB, 10 μM ligand, at +/−100 mV, +/−50 mV and −25 mV. As to the method:
Bilayers were formed between two droplets formed within a PMMA chamber filled with 1 mg/ml DPhPC in undecane and AR20 silicone oil (1:1 ratio). The first step in this process was to deposit a 50 nl droplet onto the stationary silver electrode positioned at the base of the well; this droplet consisted of an aqueous solution containing 300 mM NaCl, 10 mM HEPES (pH 7.4), containing the odorant receptor proteins in proteoliposomes (at a 1:20 dilution from the proteoliposome preparation), […] The second droplet was mounted onto a second silver electrode which was held in the oil and lipid mixture using a YOU-3 manipulator (Narishige, Japan). […] Once the droplets were in contact a bilayer formed spontaneously within 1 minute (as determined by visual assessment and an increase in the bilayer capacitance as measured with a capacitance voltage protocol using the Pico2 amplifier). Insertion of an active channel was determined by a change in current while clamping the voltage at 50 mV. […]
Currents were recorded with a Pico2 or an eONE-HS amplifier (Tecella, USA and Elements, Italy, respectively) with built-in digitizers, operating in gap-free acquisition mode at a sampling frequency of 20 kHz, and using a 0.8 or 1.5 kHz low pass filter. […]
Data were analysed using ANA (Dr Pusch, Genoa), EDR (Elements, Italy) and WinWCP (Dr Dempster, University of Strathclyde). […]

Experiment [2] addresses T2, DmOr22a/Orco (Drosophila melanogaster, UniProt P81909).
T2 sequence (P81909 1-397): T1 sequence (P81909 1-397)
T2 sequence (Q9VNB5 1-486 partner): T1 sequence (Q9VNB5 1-486 partner)
Conditions: * estimated visually from graph, cited from earlier work.

Where two headings read alike, the source gives them in different places.

As to `CCCCCC(=O)OC` [methyl hexanoate], in experiment [1], the ion channel activity entry is reported as “ion channel activity is observed”. Also, the “Sensitivity limit (given as Log)” value in experiment [2] (ref 43) was “Log = −7.5*”; in experiment [2] (ref 44), “Log = −7*”.

The record behind these values is patent US20210255184A1, “Biosensor Device and Methods” (The New Zealand Institute for Plant and Food Research …, priority 2018, published 2021).
